Each block holds one molecule with its values, some of them ahead of it.
Columns and labels:
[1] = molecular target: ABCC2 (MRP2; ATP-binding cassette sub-family C member 2) (Rattus norvegicus, UniProt Q63120); assay: TP_TRANSPORTER: inhibition of Fluo-3 secretion into apical vacuoles (Fluo-3: 1 uM, PSC 833: 50 uM) in WIF-B cells; type: functional, cell-based, WIF-B cell; settings: probe Fluo-3 (1 uM)
[2] = molecular target: ATP-binding cassette sub-family C member 2 (Rattus norvegicus, UniProt Q63120); assay: TP_TRANSPORTER: inhibition of Fluo-3 uptake (Fluo-3: 4.4 uM, PSC 833: 10 uM) in bile canalicular membrane vesicles from Wistar rat; type: functional, cell membranes, Bile canalicular membrane vesicle
[3] = substrate: Cc1ccc(N(CC(=O)O)CC(=O)O)c(OCCOc2cc(-c3c4cc(Cl)c(=O)cc-4oc4cc(O)c(Cl)cc34)ccc2N(CC(=O)O)CC(=O)O)c1; assay: TP_TRANSPORTER: uptake in bile canalicular membrane vesicles from Wistar/TR- rat; type: functional, cell membranes, Bile canalicular membrane vesicle

- inhibition at 50 µM [1]: 50%
- Activity [2]: is not an inhibitor [-]
Molecule: C/C=C/C[C@@H](C)C(=O)[C@H]1C(=O)N[C@@H](C(C)C)C(=O)N(C)CC(=O)N(C)[C@@H](CC(C)C)C(=O)N[C@@H](C(C)C)C(=O)N(C)[C@@H](CC(C)C)C(=O)N[C@@H](C)C(=O)N[C@H](C)C(=O)N(C)[C@@H](CC(C)C)C(=O)N(C)[C@@H](CC(C)C)C(=O)N(C)[C@@H](C(C)C)C(=O)N1C [VALSPODAR]

B1: ATP-binding cassette sub-family C member 2 (Rattus norvegicus) (protein)
chain: MDKFCNSTFWDLSLLESPEADLPLCFEQTVLVWIPLGFLWLLAPWQLYSVYRSRTKRSSITKFYLAKQVFVVFLLILAAIDLSLALTEDTGQATVPPVRYTNPILYLCTWLLVLAVQHSRQWCVRKNSWFLSLFWILSVLCGVFQFQTLIRALLKDSKSNMAYSYLFFVSYGFQIVLLILTAFSGPSDSTQTPSVTASFLSSITFSWYDRTVLKGYKHPLTLEDVWDIDEGFKTRSVTSKFEAAMTKDLQKARQAFQRRLQKSQRKPEATLHGLNKKQSQSQDVLVLEEAKKKSEKTTKDYPKSWLIKSLFKTFHVVILKSFILKLIHDLLVFLNPQLLKLLIGFVKSSNSYVWFGYICAILMFAVTLIQSFCLQSYFQHCFVLGMCVRTTVMSSIYKKALTLSNLARKQYTIGETVNLMSVDSQKLMDATNYMQLVWSSVIQITLSIFFLWRELGPSILAGVGVMVLLIPVNGVLATKIRNIQVQNMKNKDKRLKIMNEILSGIKILKYFAWEPSFQEQVQGIRKKELKNLLRFGQLQSLLIFILQITPILVSVVTFSVYVLVDSANVLNAEKAFTSITLFNILRFPLSMLPMVTSSILQASVSVDRLERYLGGDDLDTSAIRRVSNFDKAVKFSEASFTWDPDLEATIQDVNLDIKPGQLVAVVGTVGSGKSSLVSAMLGEMENVHGHITIQGSTAYVPQQSWIQNGTIKDNILFGSEYNEKKYQQVLKACALLPDLEILPGGDMAEIGEKGINLSGGQKQRVSLARAAYQDADIYILDDPLSAVDAHVGKHIFNKVVGPNGLLAGKTRIFVTHGIHFLPQVDEIVVLGKGTILEKGSYRDLLDKKGVFARNWKTFMKHSGPEGEATVNNDSEAEDDDDGLIPTMEEIPEDAASLAMRRENSLRRTLSRSSRSSSRRGKSLKNSLKIKNVNVLKEKEKEVEGQKLIKKEFVETGKVKFSIYLKYLQAVGWWSILFIILFYGLNNVAFIGSNLWLSAWTSDSDNLNGTNNSSSHRDMRIGVFGALGLAQGICLLISTLWSIYACRNASKALHGQLLTNILRAPMRFFDTTPTGRIVNRFSGDISTVDDLLPQTLRSWMMCFFGIAGTLVMICMATPVFAIIIIPLSILYISVQVFYVATSRQLRRLDSVTKSPIYSHFSETVTGLPIIRAFEHQQRFLAWNEKQIDINQKCVFSWITSNRWLAIRLELVGNLVVFCSALLLVIYRKTLTGDVVGFVLSNALNITQTLNWLVRMTSEAETNIVAVERISEYINVENEAPWVTDKRPPADWPRHGEIQFNNYQVRYRPELDLVLKGITCNIKSGEKVGVVGRTGAGKSSLTNCLFRILESAGGQIIIDGIDVASIGLHDLRERLTIIPQDPILFSGSLRMNLDPFNKYSDEEVWRALELAHLRSFVSGLQLGLLSEVTEGGDNLSIGQRQLLCLGRAVLRKSKILVLDEATAAVDLETDSLIQTTIRKEFSQCTVITIAHRLHTIMDSDKIMVLDNGKIVEYGSPEELLSNRGSFYLMAKEAGIENVNHTEL
- Km [3]: 3.7 µM
